From ChEMBL document CHEMBL2157955, “Design, synthesis and anticancer activity of 1-acyl-3-amino-1,4,5,6-tetrahydropyrrolo[3,4-c]pyrazole derivatives” (Bioorg Med Chem Lett, 2012)

Legend:
HCT-116 [1] = assay: Cytotoxicity against human HCT116 cells after 48 hrs by SRB assay; format: functional, cell-based; conditions: HCT-116, 48 h
HT-29 [2] = assay: Cytotoxicity against human HT-29 cells after 48 hrs by SRB assay; format: functional, cell-based; conditions: HT-29, 48 h
[3] = Cytotoxicity against human L02 cells after 48 hrs by SRB assay; format: cell-based; conditions: L02, 48 h
MCF7 [4] = assay: Cytotoxicity against human MCF7 cells after 48 hrs by SRB assay; format: functional, cell-based; conditions: MCF7, 48 h
HepG2 [5] = assay: Cytotoxicity against human HepG2 cells after 48 hrs by SRB assay; format: functional, cell-based; conditions: HepG2, 48 h
A549 [6] = assay: Ratio of (R)-roscovitine IC50 to compound IC50 for human A549 cells; format: functional
[7] = target: Aurora kinase B (Homo sapiens) (UniProt Q96GD4); assay: Inhibition of human Aurora B kinase at 10 uM
Chain of Aurora kinase B (Homo sapiens) (Q96GD4 whole entry): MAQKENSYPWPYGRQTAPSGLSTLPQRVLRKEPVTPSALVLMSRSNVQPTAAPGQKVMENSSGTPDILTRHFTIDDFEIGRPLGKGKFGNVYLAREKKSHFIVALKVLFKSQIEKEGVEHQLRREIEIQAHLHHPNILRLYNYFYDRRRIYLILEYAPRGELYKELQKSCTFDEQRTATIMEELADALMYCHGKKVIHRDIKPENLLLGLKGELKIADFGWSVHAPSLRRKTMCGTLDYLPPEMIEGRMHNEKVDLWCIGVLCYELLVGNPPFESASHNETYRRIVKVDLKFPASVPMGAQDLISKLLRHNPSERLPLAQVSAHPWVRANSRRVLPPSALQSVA

HT-29 [8] = assay: Ratio of (R)-roscovitine IC50 to compound IC50 for human HT-29 cells; format: functional
A549 [9] = assay: Cytotoxicity against human A549 cells after 48 hrs by SRB assay; format: functional, cell-based; conditions: A549, 48 h
[10] = target: Cyclin-dependent kinase 5/CDK5 activator 1 (Homo sapiens) (UniProt Q00535+Q15078); assay: Inhibition of human CDK5/p25 at 10 uM; format: protein-complex assay
Chain of Cyclin-dependent kinase 5/CDK5 activator 1 (Homo sapiens) (Q00535 whole entry): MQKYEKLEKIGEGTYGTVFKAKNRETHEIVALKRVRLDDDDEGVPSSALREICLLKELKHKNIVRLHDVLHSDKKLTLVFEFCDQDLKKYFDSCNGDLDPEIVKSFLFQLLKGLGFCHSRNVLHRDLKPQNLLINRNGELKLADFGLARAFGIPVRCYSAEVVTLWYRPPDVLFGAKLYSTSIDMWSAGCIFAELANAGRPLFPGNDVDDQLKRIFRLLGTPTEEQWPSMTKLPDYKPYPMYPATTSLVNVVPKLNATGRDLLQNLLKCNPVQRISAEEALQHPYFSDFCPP
Chain of Cyclin-dependent kinase 5/CDK5 activator 1 (Homo sapiens) (Q15078 99-307 partner limits assumed): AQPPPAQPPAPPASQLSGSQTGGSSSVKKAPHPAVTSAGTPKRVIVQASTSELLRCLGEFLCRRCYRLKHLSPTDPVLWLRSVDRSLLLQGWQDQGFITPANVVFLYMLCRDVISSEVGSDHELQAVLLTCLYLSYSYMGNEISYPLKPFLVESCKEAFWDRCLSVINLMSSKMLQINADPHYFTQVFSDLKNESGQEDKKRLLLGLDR

[11] = target: Cyclin-dependent kinase 1/cyclin B1 (Homo sapiens) (UniProt P06493+P14635); assay: Inhibition of human CDK1/cyclinB at 10 uM; format: protein-complex assay
Chain of Cyclin-dependent kinase 1/cyclin B1 (Homo sapiens) (P06493 whole entry, looked up): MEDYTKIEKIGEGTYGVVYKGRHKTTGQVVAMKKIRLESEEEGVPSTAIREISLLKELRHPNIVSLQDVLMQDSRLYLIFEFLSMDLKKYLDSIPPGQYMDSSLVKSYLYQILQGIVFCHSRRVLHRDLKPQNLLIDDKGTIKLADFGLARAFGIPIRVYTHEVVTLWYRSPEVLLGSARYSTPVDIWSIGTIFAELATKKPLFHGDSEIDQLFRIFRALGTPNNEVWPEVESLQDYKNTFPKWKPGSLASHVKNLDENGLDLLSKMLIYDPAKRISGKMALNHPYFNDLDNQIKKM
Chain of Cyclin-dependent kinase 1/cyclin B1 (Homo sapiens) (P14635 whole entry, looked up): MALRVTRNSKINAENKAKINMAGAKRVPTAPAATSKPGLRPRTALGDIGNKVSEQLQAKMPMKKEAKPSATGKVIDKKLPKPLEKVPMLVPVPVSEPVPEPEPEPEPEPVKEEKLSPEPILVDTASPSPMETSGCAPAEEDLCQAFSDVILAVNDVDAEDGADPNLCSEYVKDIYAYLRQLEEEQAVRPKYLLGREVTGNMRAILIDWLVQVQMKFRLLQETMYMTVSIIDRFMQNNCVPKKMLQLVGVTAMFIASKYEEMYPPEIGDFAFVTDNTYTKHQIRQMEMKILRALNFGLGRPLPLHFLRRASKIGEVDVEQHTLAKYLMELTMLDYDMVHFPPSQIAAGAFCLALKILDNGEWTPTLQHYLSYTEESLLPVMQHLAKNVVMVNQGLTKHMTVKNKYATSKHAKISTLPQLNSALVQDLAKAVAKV

[12] = target: Epidermal growth factor receptor (Homo sapiens) (UniProt P00533); assay: Inhibition of human EGFR at 10 uM
Chain of Epidermal growth factor receptor (Homo sapiens) (P00533 whole entry): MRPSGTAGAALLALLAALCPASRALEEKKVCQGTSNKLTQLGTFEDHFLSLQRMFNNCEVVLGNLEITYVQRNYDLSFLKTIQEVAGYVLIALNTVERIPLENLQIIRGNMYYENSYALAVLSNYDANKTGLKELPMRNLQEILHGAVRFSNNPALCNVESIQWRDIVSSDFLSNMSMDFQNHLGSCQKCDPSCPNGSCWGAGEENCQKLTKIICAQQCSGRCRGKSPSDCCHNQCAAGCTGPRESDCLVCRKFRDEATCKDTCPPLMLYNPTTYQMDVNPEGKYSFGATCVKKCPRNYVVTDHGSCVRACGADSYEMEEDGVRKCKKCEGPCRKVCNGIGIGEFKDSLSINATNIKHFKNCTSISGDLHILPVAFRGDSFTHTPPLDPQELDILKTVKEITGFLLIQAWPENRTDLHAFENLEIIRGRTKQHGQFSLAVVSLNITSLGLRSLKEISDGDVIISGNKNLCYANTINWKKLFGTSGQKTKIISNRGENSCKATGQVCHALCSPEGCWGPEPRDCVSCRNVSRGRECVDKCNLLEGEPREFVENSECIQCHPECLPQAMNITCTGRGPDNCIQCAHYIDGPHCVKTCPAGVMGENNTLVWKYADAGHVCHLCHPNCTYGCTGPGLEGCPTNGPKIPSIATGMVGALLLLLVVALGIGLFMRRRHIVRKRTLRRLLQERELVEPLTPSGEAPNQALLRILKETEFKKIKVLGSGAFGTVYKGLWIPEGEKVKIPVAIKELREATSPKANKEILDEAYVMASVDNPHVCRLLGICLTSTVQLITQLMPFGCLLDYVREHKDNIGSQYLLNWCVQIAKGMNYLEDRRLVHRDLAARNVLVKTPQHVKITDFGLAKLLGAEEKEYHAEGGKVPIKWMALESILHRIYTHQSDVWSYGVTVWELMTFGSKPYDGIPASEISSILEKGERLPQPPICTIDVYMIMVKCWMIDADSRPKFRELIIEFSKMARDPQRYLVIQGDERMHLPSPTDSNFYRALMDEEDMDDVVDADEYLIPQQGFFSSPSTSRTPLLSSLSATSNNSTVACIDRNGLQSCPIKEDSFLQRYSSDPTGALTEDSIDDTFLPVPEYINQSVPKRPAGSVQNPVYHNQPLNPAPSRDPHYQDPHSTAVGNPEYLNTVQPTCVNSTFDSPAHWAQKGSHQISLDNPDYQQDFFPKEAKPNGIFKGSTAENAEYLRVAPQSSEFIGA

[13] = target: Cyclin-dependent kinase 7/ cyclin H (Homo sapiens) (UniProt P51946+P50613); assay: Inhibition of human CDK7/CyclinH/MAT1 at 10 uM; format: protein-complex assay
HepG2 [14] = assay: Ratio of (R)-roscovitine IC50 to compound IC50 for human HepG2 cells; format: functional
MCF7 [15] = assay: Ratio of (R)-roscovitine IC50 to compound IC50 for human MCF7 cells; format: functional
[16] = target: T1, Aurora kinase A (Homo sapiens) (UniProt O14965); assay: Inhibition of human Aurora A kinase at 10 uM
T1 sequence (whole entry): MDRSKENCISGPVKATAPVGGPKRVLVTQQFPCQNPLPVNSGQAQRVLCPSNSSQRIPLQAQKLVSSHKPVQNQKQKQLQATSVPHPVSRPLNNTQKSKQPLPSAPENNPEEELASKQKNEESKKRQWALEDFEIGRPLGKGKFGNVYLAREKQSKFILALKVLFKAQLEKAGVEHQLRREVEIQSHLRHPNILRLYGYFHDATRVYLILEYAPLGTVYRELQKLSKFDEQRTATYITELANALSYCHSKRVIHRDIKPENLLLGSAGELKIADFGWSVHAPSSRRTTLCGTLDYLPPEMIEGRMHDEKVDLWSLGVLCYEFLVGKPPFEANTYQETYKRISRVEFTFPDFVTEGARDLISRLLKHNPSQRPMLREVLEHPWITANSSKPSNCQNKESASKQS

[17] = target: Glycogen synthase kinase-3 beta (Homo sapiens) (UniProt P49841); assay: Inhibition of human GSK3beta at 10 uM
Chain of Glycogen synthase kinase-3 beta (Homo sapiens) (P49841 whole entry, looked up): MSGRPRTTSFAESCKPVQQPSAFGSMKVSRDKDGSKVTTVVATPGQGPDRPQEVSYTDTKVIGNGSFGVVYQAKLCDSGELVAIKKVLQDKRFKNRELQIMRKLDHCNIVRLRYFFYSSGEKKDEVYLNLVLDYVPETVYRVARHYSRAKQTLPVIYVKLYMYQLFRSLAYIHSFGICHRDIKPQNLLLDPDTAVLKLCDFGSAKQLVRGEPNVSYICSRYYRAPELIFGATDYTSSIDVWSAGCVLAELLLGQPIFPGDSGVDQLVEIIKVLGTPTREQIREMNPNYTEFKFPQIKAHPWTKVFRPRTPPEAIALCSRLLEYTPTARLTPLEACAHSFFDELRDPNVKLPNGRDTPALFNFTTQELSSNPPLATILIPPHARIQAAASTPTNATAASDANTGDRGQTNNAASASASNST

HCT-116 [18] = assay: Ratio of (R)-roscovitine IC50 to compound IC50 for human HCT116 cells; format: functional
HT-1080 [19] = assay: Ratio of (R)-roscovitine IC50 to compound IC50 for human HT1080 cells; format: functional
[20] = target: Serine/threonine-protein kinase mTOR (Homo sapiens) (UniProt P42345); assay: Inhibition of human mTOR at 10 uM
HT-1080 [21] = assay: Cytotoxicity against human HT1080 cells after 48 hrs by SRB assay; format: functional, cell-based; conditions: HT-1080, 48 h
[22] = target: Cyclin-dependent kinase 2/cyclin E (Homo sapiens) (UniProt P24864+P24941+O96020); assay: Inhibition of human CDK2/cyclin E at 10 uM; format: protein-complex assay
[23] = target: CDK9/cyclin T1 (Homo sapiens) (UniProt O60563+P50750); assay: Inhibition of human CDK9/CyclinT1 at 10 uM; format: protein-complex assay
[24] = target: Cyclin-dependent kinase 2/cyclin A (Homo sapiens) (UniProt P24941+P20248+P78396); assay: Inhibition of human CDK2/cyclin A at 10 uM; format: protein-complex assay

`CCCCNC(=O)N1Cc2c(NC(=O)c3ccccc3)nn(C(=O)C3CC3)c2C1` showed an IC50 (HCT-116 [1]) of 3.47 µM.
Molecule `CC(=O)n1nc(NC(=O)c2ccccc2)c2c1CN(C(=O)c1cccc([N+](=O)[O-])c1)C2` has an IC50 (HCT-116 [1]) of 17.3 µM.
`CCC(=O)n1nc(NC(=O)c2ccccc2)c2c1CN(C(=O)c1ccccc1)C2` showed an IC50 (HT-29 [2]) of 0.91 µM, an IC50 [3] of 2.47 µM and an IC50 (HCT-116 [1]) of 1.06 µM. The IC50 (MCF7 [4]) was 1.07 µM and the IC50 (HepG2 [5]) was 0.86 µM.
In the case of `COc1ccc(C(=O)Nc2nn(C(=O)C3CC3)c3c2CN(C(=O)c2ccccc2)C3)cc1`, the IC50 (HCT-116 [1]) is reported as 5.18 µM.
Molecule `CC(C)C(=O)n1nc(NC(=O)c2ccccc2)c2c1CN(C(=O)c1ccccc1)C2` has an IC50 (HCT-116 [1]) of 2.02 µM.
Molecule `CC(=O)n1nc(NC(=O)c2ccccc2)c2c1CN(C(=O)C1CCC(C)CC1)C2` (stereo not drawn) has an IC50 (HCT-116 [1]) of 12.2 µM.
For `CC(=O)n1nc(NC(=O)c2ccccc2)c2c1CN(C(=O)c1ccc(-c3ccccc3)cc1)C2`, the IC50 (HCT-116 [1]) was > 90 µM.
`CCCCNC(=O)N1Cc2c(NC(=O)c3ccccc3)nn(C(=O)c3ccccc3)c2C1` gave an IC50 (HCT-116 [1]) of 7.47 µM.
In the case of `CCCCNC(=O)N1Cc2c(NC(=O)Cc3ccccc3)nn(C(=O)c3ccccc3)c2C1`, the IC50 (HCT-116 [1]) is reported as 43.1 µM.
`O=C(Nc1nn(C(=O)C2CC2)c2c1CN(C(=O)c1ccccc1)C2)c1ccccc1` gave an IC50 (HCT-116 [1]) of 1.24 µM.
`CCCCNC(=O)N1Cc2c(NC(=O)c3ccc(OC)cc3)nn(C(=O)c3ccccc3)c2C1` gave an IC50 (HCT-116 [1]) of 25.3 µM.
`O=C(Nc1n[nH]c2c1CN(C(=O)c1ccccc1)C2)c1ccc(F)cc1` gave an IC50 (HCT-116 [1]) of 3.19 µM.
Work on `O=C(Nc1nn(C(=O)c2ccccc2)c2c1CN(C(=O)c1ccccc1)C2)c1ccccc1` yielded an IC50 (HCT-116 [1]) of 1.4 µM.
Work on `CC(=O)n1nc(NC(=O)c2ccccc2)c2c1CN(C(=O)c1cccc(Cl)c1)C2` yielded an IC50 (HCT-116 [1]) of 17.4 µM.
For `CC(=O)n1nc(NC(=O)c2ccccc2)c2c1CN(C(=O)CCl)C2`, the IC50 (HCT-116 [1]) was 4.1 µM.
For `CC(=O)n1nc(NC(=O)c2ccccc2)c2c1CN(S(=O)(=O)N(C)C)C2`, the IC50 (HCT-116 [1]) was 35.3 µM.
`CC(=O)n1nc(NC(=O)c2ccccc2)c2c1CN(C(=O)c1ccc([N+](=O)[O-])cc1)C2` showed an IC50 (HCT-116 [1]) of 16.2 µM.
`COc1ccc(C(=O)Nc2n[nH]c3c2CN(C(=O)c2ccccc2)C3)cc1` gave an IC50 (HCT-116 [1]) of 13.6 µM.
Molecule `COc1ccc(C(=O)Nc2nn(C(=O)c3ccccc3)c3c2CN(C(=O)c2ccccc2)C3)cc1` has an IC50 (HCT-116 [1]) of 31.3 µM.
For `CC(=O)n1nc(NC(=O)c2ccccc2)c2c1CN(C(=O)c1cccc(F)c1)C2`, the IC50 (HCT-116 [1]) was 21.9 µM.
In the case of `CC(=O)n1nc(NC(=O)c2ccccc2)c2c1CN(C(=O)c1ccccc1)C2`, the “Ratio IC50” value (A549 [6]) is reported as 4, the inhibition [7] is reported as 32% and the “Ratio IC50” value (HT-29 [8]) is reported as 4. It also gave an IC50 (A549 [9]) of 1.74 µM, an IC50 (HT-29 [2]) of 0.92 µM and an IC50 [3] of 2.22 µM. The IC50 (HCT-116 [1]) was 0.58 µM, the inhibition [10] was 72% and the inhibition [11] was 30%. For the same molecule, the inhibition [12] was 8%, the inhibition [13] was 5% and the IC50 (MCF7 [4]) was 0.99 µM. The “Ratio IC50” value (HepG2 [14]) was 4, the “Ratio IC50” value (MCF7 [15]) was 4 and the inhibition [16] was 33%. The inhibition [17] was 67%, the “Ratio IC50” value (HCT-116 [18]) was 28 and the “Ratio IC50” value (HT-1080 [19]) was 4. It also gave an inhibition [20] of 3%, an IC50 (HT-1080 [21]) of 2.13 µM and an inhibition [22] of 30%. The inhibition [23] was 10%, the inhibition [24] was 17% and the IC50 (HepG2 [5]) was 0.81 µM.
With `O=C(Nc1nn(C(=O)c2ccccc2)c2c1CN(C(=O)c1ccccc1)C2)c1ccc(F)cc1` the IC50 (HCT-116 [1]) was 2.78 µM.
For `CCCCNC(=O)N1Cc2c(NC(=O)c3ccc(OC)cc3)nn(C(=O)C3CC3)c2C1`, the IC50 (HCT-116 [1]) was 65.5 µM.
With `O=C(Nc1nn(C(=O)Cc2ccccc2)c2c1CN(C(=O)c1ccccc1)C2)c1ccccc1` the IC50 (HCT-116 [1]) was 2.61 µM.
In the case of `CCCCNC(=O)N1Cc2c(NC(=O)Cc3ccccc3)nn(C(=O)C3CC3)c2C1`, the IC50 (HCT-116 [1]) is reported as 31.2 µM.
Work on `CCCCNC(=O)N1Cc2c(NC(=O)c3ccc(F)cc3)nn(C(=O)c3ccccc3)c2C1` yielded an IC50 (HCT-116 [1]) of 30.8 µM.
In the case of `O=C(Nc1nn(C(=O)C2CC2)c2c1CN(C(=O)c1ccccc1)C2)c1ccc(F)cc1`, the IC50 (HCT-116 [1]) is reported as 2.28 µM.
`O=C(Nc1n[nH]c2c1CN(C(=O)c1ccccc1)C2)c1ccccc1` gave an IC50 (HCT-116 [1]) of 6.4 µM.
Work on `CC(=O)n1nc(NC(=O)c2ccccc2)c2c1CN(C(=O)N(C)C)C2` yielded an IC50 (HCT-116 [1]) of 70.3 µM.
Molecule `CCCCNC(=O)N1Cc2c(NC(=O)c3ccc(C)cc3)nn(C(=O)c3ccccc3)c2C1` has an IC50 (HCT-116 [1]) of 23.2 µM.
`CC[C@H](CO)Nc1nc(NCc2ccccc2)c2ncn(C(C)C)c2n1` [SELICICLIB] gave an IC50 (A549 [9]) of 14.1 µM, an IC50 (HT-29 [2]) of 11.6 µM and an IC50 [3] of 20.5 µM. It also gave an IC50 (HCT-116 [1]) of 16.4 µM, an IC50 (MCF7 [4]) of 12.2 µM and an IC50 (HT-1080 [21]) of 9.62 µM. It also gave an IC50 (HepG2 [5]) of 15.5 µM.
Work on `CC(=O)n1nc(NC(=O)c2ccccc2)c2c1CN(C(=O)c1ccncc1)C2` yielded an IC50 (HCT-116 [1]) of 10 µM.
In the case of `CCCCNC(=O)N1Cc2c(NC(=O)c3ccc(C)cc3)nn(C(=O)C3CC3)c2C1`, the IC50 (HCT-116 [1]) is reported as 17.6 µM.
With `CCCCNC(=O)N1Cc2c(NC(=O)c3ccc(F)cc3)nn(C(=O)C3CC3)c2C1` the IC50 (HCT-116 [1]) was 23.2 µM.
`CC(=O)n1nc(NC(=O)c2ccccc2)c2c1CN(S(=O)(=O)c1ccc([N+](=O)[O-])cc1)C2` gave an IC50 (HCT-116 [1]) of 22.3 µM.
